One assay concerns skin graft rejection. In words: Skin graft transplantation model for HVGD. The assay is classed as in vivo, mice. As for the experimental part:
Recipient mice were dorsally transplanted with circular pieces of donor skin. Mice were inspected daily. Grafts were considered rejected when no viable donor epidermis remained. The results are expressed in mean survival time (MST). P values were obtained by analysis of variance (ANOVA).
[…] The first Cop 1 treatment on day −7 was injected sc in ICFA as a depot dose. Control mice were treated daily with PBS alone and PBS with ICFA on day −7 before transplantation.
Grafts were inspected daily. Rejection was considered positive when no viable donor epidermis remained. […]

Assay [1] relates to presentation of BALB/c minor H antigens by B10.D2 APC to B10.D2 responder T cells. In words: Proliferative responses to minor H antigens, APC pre-pulsed with Cop 1 and washed. The assay is classed as cell-based, mice. To be noted: washed. The protocol: B10.D2 mice were injected ip. with irradiated (20 Gy) BALB/c spleen cells 72 hours prior to the assay. B10.D2 spleen cells were harvested, depleted of red blood cells (RBC) and used as irradiated (10 Gy) antigen-presenting cells (APC) presenting BALB/c mH antigens. For the primary assay, APC were plated at 2.5×10^5 cells per well in 96-well round-bottom plates and incubated with 2.5×10^5 nylon-wool-enriched responder T cells (>88% CD3^+ by FACS analysis) from naive B10.D2 mice in the presence or absence of increasing concentrations of Copolymer 1 (2.5–80 μg/well). After 96 hours of incubation, cells were pulsed with 1 μCi [^3H]-thymidine for an additional 16 hours before harvesting. In the secondary assay, irradiated APC were plated at 2.5×10^5 cells/well in 96-well round-bottom plates, preincubated for 24 hours at 37° C. with increasing concentrations of GLAT (2.5–80 μg/well) or with medium alone, and thereafter washed three times before the addition of 2.5×10^5 nylon-wool-enriched responder T cells from naive B10.D2 mice. Culture medium was RPMI 1640, supplemented with 10% pre-screened fetal calf serum, 2 mM glutamine, 50 μM 2-mercaptoethanol, 100 U/ml penicillin, and 100 μg/ml streptomycin.
[…] Results are expressed as cpm from triplicate cultures. Standard deviations were <20% of the mean. Culture medium was RPMI 1640, supplemented with 10% pre-screened fetal calf serum, 2 mM glutamine, 50 μM 2-mercaptoethanol, 100 U/ml penicillin, and 100 μg/ml streptomycin.

Where “and” joins values, the source holds several entries; their conditions need not be identical. Equal entries are not always repeated.

This is an account of results in patent publication US7053043B1, “Pharmaceutical compositions comprising synthetic peptide copolymers and methods for preventing and treating GVHD and HVGD” (Yeda Research and Development Co.Ltd., priority 1999, dated 2006).

Take Glatiramer acetate [Cop 1]: the “MST ± SD (Mean Survival Time of skin graft)” value is 20.6 days and 20.6 ± 3.3 days in the assay on skin graft rejection (B10.D2 → BALB/c, H-2d, Cop 1 600 μg/day (ip+sc) from day −7); 20.6 days with skin graft rejection (B10.D2 → BALB/c, H-2d, Cop 1 600 μg/day (ip+sc) from day −7, listed as Copolymer 1); 20.4 ± 4.5 days in the assay with skin graft rejection (B10.D2 → BALB/c, Cop 1 300 μg/day); 20.4 days in the assay with skin graft rejection (B10.D2 → BALB/c, Cop 1 300 μg/day, listed as Copolymer 1); 17.6 ± 5.1 with skin graft rejection (B10PL → PL/J, H-2u, Cop 1 600 μg/day); 18.5 ± 3.3 in the assay with skin graft rejection (C57BL → C3HSW, H-2b → H-2d, Cop 1 600 μg/day). Besides, the “MST ± SD (Mean Survival Time of skin graft)” value in the assay with skin graft rejection (Haplotype H-2b, Cop 1 600 μg/day) was 17.7 ± 2.1. Further, in the assay with skin graft rejection (B10.D2 → BALB/c, 600 μg/day, text refers to Table 6, PBS 26 days), the “mean graft survival time (MST)” value turned out to be 34 days. For the same substance, the “cpm (Cop 1 Pulsing Concentration)” value in assay [1] (APC pre-pulsed 24 hours with Cop 1 1.5 μg (Batch II)) is listed as 15,533 cpm; in assay [1] (APC pre-pulsed 24 hours with Cop 1 5 μg (Batch II)), 12,377 cpm; in assay [1] (APC pre-pulsed 24 hours with Cop 1 10 μg (Batch II)) it was 11,425 cpm; in assay [1] (APC pre-pulsed 24 hours with Cop 1 20 μg (Batch II)) it was 10,465 cpm; in assay [1] (APC pre-pulsed 24 hours with Cop 1 40 μg (Batch II)), 7,653 cpm; in assay [1] (APC pre-pulsed 24 hours with Cop 1 80 μg (Batch II)), 4,628 cpm.
